Measured values as given in patent US7741344B2, “Process for preparing purified S-BEL and R-BEL and compositions thereof” (Washington University in St. Louis, priority 2002, dated 2010).

Experiments:
PKCε = assay: AVP-induced PKC translocation in A-10 cells (Western), PKCε; format: cell-based, rat; conditions: 5 μM pretreatment 15 min, 1 μM AVP; FIG. 8
Experimental: (§1) Determination of PKC Translocation—Confluent A-10 cells in 10 cm dishes were washed twice with DMEM without serum, followed by incubation with either 5 μM (S)-BEL or ethanol vehicle in DMEM for 15 min at 37° C. This media was then removed and DMEM with or without 1 μM AVP was incubated with the cells for 5 min. After washing with ice-cold PBS, the cells were collected by scraping into 20 mM Tris-HCl, pH 7.4 containing 0.33 M sucrose, 5 mM EDTA, 0.5 mM 4(2-aminoethyl)benzenesulfonylfluoride, and 5 μg/ml leupeptin and were lysed by three cycles of flash freezing with liquid nitrogen and thawing. Each sample was then further homogenized utilizing a teflon homogenizer before isolating the low speed pellet (1,000×g), membrane (100,000×g pellet), and cytosol (100,000×g supernatant) fractions. The protein concentrations of the fractions were determined utilizing the bicinchoninic acid (BCA) assay (Pierce) with BSA as a standard. Samples were electrophoresed and subjected to ECL Western analysis utilizing rabbit polyclonal antibodies against PKCα and PKCε as described above for MAPK phosphorylation. For blots incubated with mouse monoclonal antibodies against PKCδ and PKCι., an anti-mouse IgG (Fab specific)-peroxidase conjugate was utilized in place of the protein A-peroxidase conjugate. […]

[1] = tested on: purified recombinant iPLA2β; assay: Assay of iPLA2β inhibition by BEL (radiolabeled phospholipid substrate); format: biochemical
Experimental: Recombinant iPLA2 Enzymes—Recombinant iPLA2β was expressed and purified from Sf9 cells as previously described (35).
Assay of iPLA2β and iPLA2γ Inhibition by BEL—Purified recombinant iPLA2β or Sf9 cell membranes containing recombinant iPLA2γ were incubated with (R) BEL, (S) BEL, racemic BEL, or ethanol vehicle for 3 mm at 22° C. in the presence of 100 mM Tris-HCl (pH 7.0) and 4 mM EGTA (for iPLA2β) or 100 mM Tris-acetate (pH 8.0) and 4 mM EGTA (for iPLA2γ). The concentration of BEL used for each test ranged from 0 to 16 μM. L-α-1-palmitoyl-2-[1^14C]-arachidonyl-phosphatidylcholine (5 μM final concentration) or L-α-1-palmitoyl-2-[1-^14C]-oleoyl-phosphatidylcholine (5 μM final concentration) in ethanol was then added to each sample and incubated at 37° C. for 2 min. Reactions were terminated by extraction of radiolabeled products into butanol, and reactants and products were separated by thin layer chromatography using Whatman LK6D 60 Å Silica Gel plates with petroleum ether/ethyl ether/acetic acid (70:30:1) as the mobile phase. Regions corresponding to the migration of a fatty acid standard visualized by iodine staining were scraped into vials and radioactivity was quantified by scintillation spectrometry.
Panel A—Purified recombinant iPLA2β (1 μg/ml) in 100 mM Tris-HCl, pH 7.3 containing 1 mM EGTA was preincubated at 22° C. for 3 mm in the presence of the indicated concentrations of (R)-, (S)-, or rac-BEL or ethanol vehicle alone (1% final concentration). Radiolabeled substrate (L-α-1-palmitoyl-2-[1-^14C]-arachidonyl-phosphatidylcholine, 5 μM final concentration) was then added to each reaction and incubated at 37° C. for 2 min. Reactions were terminated by extraction of remaining substrate and products into butanol, separation by TLC, and quantification of released radiolabeled fatty acid by scintillation spectrometry as described in Experimental Procedures.

α-chymotrypsin = biological target: T1, α-chymotrypsin (Bos taurus, UniProt P00766); assay: Inhibition of α-chymotrypsin by BEL; format: biochemical; conditions: 2 μM chymotrypsin, up to 5-fold molar excess of inhibitor, 5 min 22° C., then 1000-fold dilution with 100 mM hydrazine; FIG. 3
T1 construct: purchased Sigma
Experimental: Inhibition of α-Chymotrypsin by BEL—The kinetics of α-chymotrrpsin inactivation by (R)-, (S)-, and rac-BEL were performed similar to methods previously described (36). The concentration of α-chymotrypsin (MW=25,000) was determined using an A^1%=20 (1 cm pathlength) at 280 nm (37). Briefly, one milliliter of α-chymotrypsin (2 μM) was incubated with up to a 5-fold molar excess of (R)-,(S)-, or rac-BEL dissolved in acetonitrile or vehicle alone for 5 mm at 22° C. in 0.1 M sodium phosphate buffer, pH 7.2. […] Following incubation at 22° C. for 1 hr, chymotrypsin activity in each diluted sample was measured utilizing a SPECTRAmax GeminiXS microplate spectrofluorometer with N-succinyl-Ala-Ala-Pro-Phe-7-amidomethylcoumarin (50 μM) as substrate for 1 mm at 25° C. Excitation and emission wavelengths were 380 nm and 460 nm, respectively.
Chymotrypsin (2 μM) in 0.1 M sodium phosphate buffer, pH 7.2 was incubated with the indicated concentrations of racemic, (R)-, or (S)-BEL for 5 mm. This solution was then diluted 1000-fold in 0.1 M sodium phosphate buffer, pH 7.2 containing 100 mM hydrazine and incubated for 1 hr at 22° C. Chymotrypsin proteolytic activity was measured spectrofluorometrically using N-succinyl-Ala-Ala-Pro-Phe-7-amido-4-methylcoumarin (50 μM) as substrate.

[2] = tested on: MAPK (ERK2) phosphorylation; assay: AVP-induced MAPK phosphorylation in A-10 cells (Western); format: cell-based, rat; conditions: 5 μM, 15 min, 1 μM AVP; FIG. 9
PKCδ = assay: AVP-induced PKC translocation in A-10 cells (Western), PKCδ; format: cell-based, rat; conditions: 5 μM pretreatment 15 min, 1 μM AVP; FIG. 8
Experimental: as §1

A-10 smooth muscle cells = assay: AVP-induced [3H]-arachidonic acid liberation from A-10 cells; format: cell-based, rat; conditions: for restoration of arachidonic acid release in (S)-BEL treated A-10 cells: 5 μM (S)-BEL pretreatment, then 1 μM AVP with PMA (1 μM) or DOG (10 μM), FIG. 7
Experimental: Quantification of [^3H]-Arachidonic Acid Liberation from A-10 Phospholipids—Rat aortic smooth muscle A-10 cells, cultured in 60 mm dishes (2.5×10^5 cells/dish), were radiolabeled with 0.5 μCi [^3H]-arachidonic acid per dish as previously described (29). Cells were washed once with DMEM containing 0.25% fatty acid free bovine serum albumin followed by two washes with DMEM alone. Cells were then incubated with the indicated concentrations of (R)-, (S)-, rac-BEL, or ethanol vehicle (0.1% final concentration) in DMEM for 20 min. This media was removed and the cells were then incubated with DMEM containing 10% heat-inactivated fetal bovine serum in the absence or presence of 1 μM AVP. In some tests, PMA (1 μM) or DOG (10 μM) was added to the medium containing AVP. After 5 mm, 1 ml of this medium was removed, lipids were extracted into 2 ml of chloroform/methanol/acetic acid (25:24:1 v/v) (38), and the remaining cells were scraped into 1 ml of deionized water prior to lipid extraction as described above. The chloroform layer was evaporated under nitrogen and the extracted lipids were separated by thin layer chromatography (petroleum ether/ethyl ether/glacial acetic acid 70:30:1). Regions containing fatty acids and phospholipids were scraped into vials and radioactivity was quantified by liquid scintillation spectrometry.
A-10 cells (2.5×10^5 cells/dish) were radiolabeled with [^3H]-arachidonic acid (0.5 μCi/dish) for 20 hrs. After washing to remove unincorporated [^3H]-arachidonic acid, cells were then incubated with either 1 μM or 5 μM (R)-BEL, (S)-BEL, rac-BEL, or ethanol vehicle (0.1%) in DMEM for 20 mm. This media was removed and the cells were then incubated with 3 ml of DMEM containing 10% heat-inactivated fetal bovine serum with or without 1 μM AVP. After 5 min, 1 ml of this medium was removed and lipids were extracted into 2 ml of chloroform/methanol/acetic acid (25:24:1). The remaining cells were scraped into 1 ml of deionized water and total lipids were extracted as described above. The chloroform layer was evaporated under nitrogen and the extracted lipids were separated by TLC. Regions containing fatty acids and phospholipids were scraped into vials and radioactivity was quantified by liquid scintillation spectrometry. Results are representative of four separate tests.
A-10 cells were radiolabeled with [^3H]-arachidonic acid, washed, and pre-incubated with 5 μM (S)-BEL or ethanol vehicle alone for 15 min as described in FIG. 5. DMEM media containing 10% heat-inactivated fetal bovine serum with or without 1 μM AVP was then added to the cells. After 5 min at 37° C., [^3H]-arachidonic acid released into the media and remaining within the cells (free and incorporated into phospholipids) was extracted into chloroform, separated by TLC, and quantified by liquid scintillation spectrometry as described in “Experimental Procedures”. Results are representative of three separate tests.

Row | Compound | AVP-induced translocation of PKCε to the membrane fraction (PKCε) | selectivity for inhibition of iPLA2β [1] [fold] | inhibition of iPLA2β, fold more potent than (R)-BEL ([1]; 3 min preincubation, FIG. 4A) [fold] | selectivity for iPLA2β in comparison to iPLA2γ ([1]; in words) | inhibition of chymotrypsin (α-chymotrypsin) | AVP-induced phosphorylation of ERK2 [2] | AVP-induced translocation of PKCδ to the membrane fraction (PKCδ) | IC50 (A-10 smooth muscle cells; 1 μM AVP, read-out: IC50, AVP-induced liberation of AA from A-10 cells) [nM] | inhibition of AVP-induced AA release (A-10 smooth muscle cells; 1 μM inhibitor, 20 min pretreatment, 1 μM AVP, FIG. 5) [%] | AVP-induced AA release (in words) (A-10 smooth muscle cells; 5 μM inhibitor, 1 μM AVP, FIG. 5) | restoration of arachidonic acid release in (S)-BEL treated A-10 cells (A-10 smooth muscle cells)
1 | O=C1O/C(=C/Br)CC[C@H]1c1cccc2ccccc12 [(S)-BEL, (S)(E)-6-(bromomethylene)-3-(1-naphthalenyl)-2H-tetrahydropyran-2-one] | does not effect | 10 | 10 | approximately an order of magnitude more selective | considerably less potent | not effected | does not effect | ~1000 | 50 | completely attenuated | –
2 | CCCCCCCC(=O)OC[C@H](CO)OC(=O)CCCCCCC [DOG, 1,2-Dioctanoyl-sn-glycerol] | – | – | – | – | – | – | – | – | – | – | Neither PMA or DOG could restore
3 | CCCCCCCCCCCCCC(=O)O[C@@H]1[C@@H](C)[C@@]2(O)[C@@H](C=C(CO)C[C@]3(O)C(=O)C(C)=C[C@@H]23)[C@@H]2C(C)(C)[C@]12OC(C)=O [PMA, Phorbol-12-myristate-13-acetate] | – | – | – | – | – | – | – | – | – | – | Neither PMA or DOG could restore
